Measurements: paper PMC5218480 (PLoS ONE, 2017)

Tested on: MV-4-11 cells
Assay: Gene expression microarray analysis (Affymetrix PrimeView) and GSEA
Assay type: cell-based, human
Parameters: RFU PODN (11730768_x_at) / Fold change /veh PODN (11730768_x_at) / RFU LINC00158 (11744669_a_at) / Fold change /veh LINC00158 (11744669_a_at) / RFU DUSP10 (11751237_a_at) / Fold change /veh DUSP10 (11751237_a_at) / RFU ID3 (11757404_x_at) / Fold change /veh ID3 (11757404_x_at) / RFU PLEKHG5 (11737974_s_at) / Fold change /veh PLEKHG5 (11737974_s_at) / RFU LRRC4B (11730491_at) / Fold change /veh LRRC4B (11730491_at) / RFU GIMAP4 (11747438_a_at) / Fold change /veh GIMAP4 (11747438_a_at) / RFU KRT8 (11758183_x_at) / Fold change /veh KRT8 (11758183_x_at) / RFU CNN1 (11734310_a_at) / Fold change /veh CNN1 (11734310_a_at) / RFU VPS37D (11726825_at) / Fold change /veh VPS37D (11726825_at) / RFU C10orf10 (11716522_x_at) / Fold change /veh C10orf10 (11716522_x_at) / RFU KIR2DL2 /// KIR2DL4 /// KIR2DL5A /// KIR2DL5B /// KIR2DS1 /// KIR2DS2 /// KIR2DS3 /// KIR2DS4 /// KIR3DL3 /// KIR3DL3 /// KIR3DS1 (11738374_at) / Fold change /veh KIR2DL2 /// KIR2DL4 /// KIR2DL5A /// KIR2DL5B /// KIR2DS1 /// KIR2DS2 /// KIR2DS3 /// KIR2DS4 /// KIR3DL3 /// KIR3DL3 /// KIR3DS1 (11738374_at) / RFU C1QL1 (11718748_at) / Fold change /veh C1QL1 (11718748_at) / RFU TMPRSS4 (11747572_a_at) / Fold change /veh TMPRSS4 (11747572_a_at) / RFU HAMP (11756126_x_at) / Fold change /veh HAMP (11756126_x_at) / RFU RNFT2 (11725882_a_at) / Fold change /veh RNFT2 (11725882_a_at) / RFU NR4A2 (11747474_a_at) / Fold change /veh NR4A2 (11747474_a_at) / RFU ABCC12 (11746883_a_at) / Fold change /veh ABCC12 (11746883_a_at) / RFU TMEM136 (11760407_x_at) / Fold change /veh TMEM136 (11760407_x_at) / RFU CLDN22 /// WWC2 (11732394_at) / Fold change /veh CLDN22 /// WWC2 (11732394_at) / RFU HLA-DPB1 (11760878_x_at) / Fold change /veh HLA-DPB1 (11760878_x_at) / RFU SPINT1 (11716480_a_at) / Fold change /veh SPINT1 (11716480_a_at) / RFU GAP43 (11754022_s_at) / Fold change /veh GAP43 (11754022_s_at) / RFU A4GNT (11735810_at) / Fold change /veh A4GNT (11735810_at) / RFU PRB3 (11715151_x_at) / Fold change /veh PRB3 (11715151_x_at) / RFU TUBB4B (11761932_at) / Fold change /veh TUBB4B (11761932_at) / RFU CAPN14 (11732068_a_at) / Fold change /veh CAPN14 (11732068_a_at) / RFU TMCC2 (11721928_a_at) / Fold change /veh TMCC2 (11721928_a_at) / RFU IRGQ (11745062_a_at) / Fold change /veh IRGQ (11745062_a_at) / RFU FAM174B (11720279_a_at) / Fold change /veh FAM174B (11720279_a_at) / RFU TMPRSS4 (11748680_a_at) / Fold change /veh TMPRSS4 (11748680_a_at) / RFU FAM212B (11763350_a_at) / Fold change /veh FAM212B (11763350_a_at) / RFU PLEKHG5 (11743358_a_at) / Fold change /veh PLEKHG5 (11743358_a_at) / RFU ZSCAN30 (11745921_a_at) / Fold change /veh ZSCAN30 (11745921_a_at) / RFU CMKLR1 (11741424_a_at) / Fold change /veh CMKLR1 (11741424_a_at) / RFU LOC101060620 /// MAPK8IP1 (11723275_at) / Fold change /veh LOC101060620 /// MAPK8IP1 (11723275_at) / RFU SPTSSB (11747773_x_at) / Fold change /veh SPTSSB (11747773_x_at) / RFU PRSS12 (11739890_at) / Fold change /veh PRSS12 (11739890_at) / RFU BIN1 (11741810_x_at) / Fold change /veh BIN1 (11741810_x_at) / RFU WNT11 (11732464_a_at) / Fold change /veh WNT11 (11732464_a_at) / RFU C10orf10 (11716521_a_at) / Fold change /veh C10orf10 (11716521_a_at) / RFU C5orf56 (11738089_at) / Fold change /veh C5orf56 (11738089_at) / RFU CYB561 (11721691_x_at) / Fold change /veh CYB561 (11721691_x_at) / RFU ANKRD19P (11752326_a_at) / Fold change /veh ANKRD19P (11752326_a_at) / RFU OR2T12 /// OR2T33 /// OR2T8 (11738714_s_at) / Fold change /veh OR2T12 /// OR2T33 /// OR2T8 (11738714_s_at) / RFU VCAN (11748164_a_at) / Fold change /veh VCAN (11748164_a_at) / RFU JSRP1 (11732532_at) / Fold change /veh JSRP1 (11732532_at) / RFU KRTAP10-11 (11738290_x_at) / Fold change /veh KRTAP10-11 (11738290_x_at) / RFU MYO3A (11730013_a_at) / Fold change /veh MYO3A (11730013_a_at) / RFU EBF3 (11725865_a_at) / Fold change /veh EBF3 (11725865_a_at) / RFU CAMK2N1 (11719241_x_at) / Fold change /veh CAMK2N1 (11719241_x_at) / RFU C5orf56 (11738088_a_at) / Fold change /veh C5orf56 (11738088_a_at) / RFU OLFML3 (11715873_a_at) / Fold change /veh OLFML3 (11715873_a_at) / RFU LOC100653217 /// NTM (11731650_a_at) / Fold change /veh LOC100653217 /// NTM (11731650_a_at) / RFU MAPK11 (11762145_a_at) / Fold change /veh MAPK11 (11762145_a_at) / RFU FIZ1 (11724087_x_at) / Fold change /veh FIZ1 (11724087_x_at) / RFU OASL (11726364_x_at) / Fold change /veh OASL (11726364_x_at) / RFU SOX15 (11748057_x_at) / Fold change /veh SOX15 (11748057_x_at) / RFU CD79A (11719716_a_at) / Fold change /veh CD79A (11719716_a_at) / RFU HIST1H1D (11736915_at) / Fold change /veh HIST1H1D (11736915_at) / RFU CASKIN2 (11723855_a_at) / Fold change /veh CASKIN2 (11723855_a_at) / RFU LOC730098 (11760151_x_at) / Fold change /veh LOC730098 (11760151_x_at) / RFU OR4N2 (11742367_at) / Fold change /veh OR4N2 (11742367_at) / RFU PRRT2 (11749266_a_at) / Fold change /veh PRRT2 (11749266_a_at) / RFU SNX32 (11753110_a_at) / Fold change /veh SNX32 (11753110_a_at) / RFU CDHR5 (11726645_a_at) / Fold change /veh CDHR5 (11726645_a_at) / RFU RCAN1 (11760418_a_at) / Fold change /veh RCAN1 (11760418_a_at) / RFU FAM167A (11723789_a_at) / Fold change /veh FAM167A (11723789_a_at) / RFU FAM26E (11764081_at) / Fold change /veh FAM26E (11764081_at) / RFU ISYNA1 (11749810_s_at) / Fold change /veh ISYNA1 (11749810_s_at) / RFU ACY1 (11761880_at) / Fold change /veh ACY1 (11761880_at) / RFU 11764098_at / Fold change /veh 11764098_at / RFU SAMD14 (11745864_x_at) / Fold change /veh SAMD14 (11745864_x_at) / RFU NPB (11741838_a_at) / Fold change /veh NPB (11741838_a_at) / RFU TMPRSS6 (11731388_a_at) / Fold change /veh TMPRSS6 (11731388_a_at) / RFU KRTAP10-2 (11738614_at) / Fold change /veh KRTAP10-2 (11738614_at) / RFU ARHGAP8 /// PRR5-ARHGAP8 (11727945_x_at) / Fold change /veh ARHGAP8 /// PRR5-ARHGAP8 (11727945_x_at) / RFU KRTAP5-7 /// NADSYN1 (11734609_at) / Fold change /veh KRTAP5-7 /// NADSYN1 (11734609_at) / RFU RASL12 (11751679_a_at) / Fold change /veh RASL12 (11751679_a_at) / RFU CDKN2B (11736163_a_at) / Fold change /veh CDKN2B (11736163_a_at) / RFU PRF1 (11729649_at) / Fold change /veh PRF1 (11729649_at) / RFU, ZNF638 /// ZNF638-IT1 / Fold change vs veh, ZNF638 /// ZNF638-IT1 / RFU, PANK3 / Fold change vs veh, PANK3 / RFU, SH3YL1 / Fold change vs veh, SH3YL1 / RFU, ZEB2 / Fold change vs veh, ZEB2 / RFU, NRIP1 / Fold change vs veh, NRIP1 / RFU, PTTG1IP / Fold change vs veh, PTTG1IP / RFU, CAPN2 / Fold change vs veh, CAPN2 / RFU, MED14 / Fold change vs veh, MED14 / RFU, SNORA58 / Fold change vs veh, SNORA58 / RFU, C1orf63 / Fold change vs veh, C1orf63 / RFU, LRRFIP1 / Fold change vs veh, LRRFIP1 / RFU, NDUFAF7 / Fold change vs veh, NDUFAF7 / RFU, SLC12A2 / Fold change vs veh, SLC12A2 / RFU, IBTK / Fold change vs veh, IBTK / RFU, ESF1 / Fold change vs veh, ESF1 / Fold change vs veh, TMEM50B / RFU, TAOK1 / Fold change vs veh, TAOK1 / RFU, ACBD3 / Fold change vs veh, ACBD3 / RFU, TMA16 / Fold change vs veh, TMA16 / RFU, RWDD3 / Fold change vs veh, RWDD3 / RFU, BCAT1 / Fold change vs veh, BCAT1 / RFU, EDEM3 / Fold change vs veh, EDEM3 / RFU, TMEM33 / Fold change vs veh, TMEM33 / RFU, WDR75 / Fold change vs veh, WDR75 / RFU, AHCTF1 / Fold change vs veh, AHCTF1 / RFU, TFRC / Fold change vs veh, TFRC / RFU, ZDHHC17 / Fold change vs veh, ZDHHC17 / RFU, NOM1 / Fold change vs veh, NOM1 / RFU, ARL8B / Fold change vs veh, ARL8B / RFU, ZBTB11 / Fold change vs veh, ZBTB11 / RFU, TAMM41 / Fold change vs veh, TAMM41 / RFU, KIAA1704 /// LOC100996395 / Fold change vs veh, KIAA1704 /// LOC100996395 / RFU, ING1 / Fold change vs veh, ING1 / RFU, TRMT61B / Fold change vs veh, TRMT61B / RFU, FUBP3 / Fold change vs veh, FUBP3 / RFU, TP53 / Fold change vs veh, TP53 / RFU, TNKS2 / Fold change vs veh, TNKS2 / RFU, ZFP14 / Fold change vs veh, ZFP14 / RFU, ACTR2 / Fold change vs veh, ACTR2 / RFU, PPP3R1 / Fold change vs veh, PPP3R1 / RFU, PIK3R1 / Fold change vs veh, PIK3R1 / RFU, HNRNPA1 / Fold change vs veh, HNRNPA1 / RFU, RNF170 / Fold change vs veh, RNF170 / RFU, ZNF28 / Fold change vs veh, ZNF28 / RFU, RNGTT / Fold change vs veh, RNGTT / RFU, OGT / Fold change vs veh, OGT / RFU, BRD1 / Fold change vs veh, BRD1 / RFU, MARS / Fold change vs veh, MARS / RFU, ZNF655 / Fold change vs veh, ZNF655 / RFU, FAHD1 / Fold change vs veh, FAHD1 / RFU, BDP1 / Fold change vs veh, BDP1 / RFU, LRRCC1 / Fold change vs veh, LRRCC1 / RFU, ARID1A / Fold change vs veh, ARID1A / RFU, ZNF146 / Fold change vs veh, ZNF146 / RFU, ZNF330 / Fold change vs veh, ZNF330 / RFU, GPN3 / Fold change vs veh, GPN3 / RFU, C9orf123 / Fold change vs veh, C9orf123 / RFU, N4BP2L2 / Fold change vs veh, N4BP2L2 / RFU, ARFIP1 / Fold change vs veh, ARFIP1 / RFU, FAM179B / Fold change vs veh, FAM179B / RFU, BCL10 / Fold change vs veh, BCL10 / RFU, UHRF1BP1L / Fold change vs veh, UHRF1BP1L / RFU, BET1 / Fold change vs veh, BET1 / RFU, CNOT2 / Fold change vs veh, CNOT2 / RFU, ZNF268 / Fold change vs veh, ZNF268 / Fold change vs veh, ZNF507 / RFU, DGCR2 / Fold change vs veh, DGCR2 / RFU, WDSUB1 / Fold change vs veh, WDSUB1 / Fold change vs veh, HSP90B1 /// MIR3652 / RFU, ADSS / Fold change vs veh, ADSS / RFU, GK / Fold change vs veh, GK / RFU, ZNF148 / Fold change vs veh, ZNF148 / RFU, TAF9 / Fold change vs veh, TAF9 / RFU, SLC1A5 / Fold change vs veh, SLC1A5 / RFU, SLMO2 / Fold change vs veh, SLMO2 / RFU, ABCC4 / Fold change vs veh, ABCC4 / RFU, LOC101060439 /// RAP1B / Fold change vs veh, LOC101060439 /// RAP1B / RFU, RFX7 / Fold change vs veh, RFX7 / RFU, GTPBP10 / Fold change vs veh, GTPBP10 / RFU, CNEP1R1 / Fold change vs veh, CNEP1R1 / RFU, BIVM-ERCC5 /// ERCC5 / Fold change vs veh, BIVM-ERCC5 /// ERCC5 / RFU, ILF3 / Fold change vs veh, ILF3 / RFU 11762660_at / Fold change /veh 11762660_at / RFU VCAN (11757783_s_at) / Fold change /veh VCAN (11757783_s_at) / RFU DDX43 (11728927_at) / Fold change /veh DDX43 (11728927_at) / RFU KRT8 (11758188_x_at) / Fold change /veh KRT8 (11758188_x_at) / RFU NKD1 (11759106_at) / Fold change /veh NKD1 (11759106_at) / RFU SRD5A1 (11742802_a_at) / Fold change /veh SRD5A1 (11742802_a_at) / RFU TPSAB1 /// TPSB2 (11721975_s_at) / Fold change /veh TPSAB1 /// TPSB2 (11721975_s_at) / RFU GSTM3 (11746129_a_at) / Fold change /veh GSTM3 (11746129_a_at) / RFU IL23R (11737362_x_at) / Fold change /veh IL23R (11737362_x_at) / RFU TMEM51 (11727254_a_at) / Fold change /veh TMEM51 (11727254_a_at) / RFU PIWIL2 (11732686_x_at) / Fold change /veh PIWIL2 (11732686_x_at) / RFU ORM1 (11744905_x_at) / Fold change /veh ORM1 (11744905_x_at) / RFU CCDC152 (11743942_at) / Fold change /veh CCDC152 (11743942_at) / RFU ECM1 (11717891_a_at) / Fold change /veh ECM1 (11717891_a_at) / RFU IL23R (11748794_a_at) / Fold change /veh IL23R (11748794_a_at) / RFU TNFAIP8L3 (11732012_x_at) / Fold change /veh TNFAIP8L3 (11732012_x_at) / RFU MBOAT4 (11741988_at) / Fold change /veh MBOAT4 (11741988_at) / RFU 11764193_at / Fold change /veh 11764193_at / RFU TMEM53 (11763286_at) / Fold change /veh TMEM53 (11763286_at) / RFU MAGEB2 (11727129_at) / Fold change /veh MAGEB2 (11727129_at) / RFU TMEM200A (11744735_a_at) / Fold change /veh TMEM200A (11744735_a_at) / RFU CCDC152 (11751479_a_at) / Fold change /veh CCDC152 (11751479_a_at) / RFU FAM211A (11726209_a_at) / Fold change /veh FAM211A (11726209_a_at) / RFU RGS16 (11746705_a_at) / Fold change /veh RGS16 (11746705_a_at) / RFU VCAN (11755009_s_at) / Fold change /veh VCAN (11755009_s_at) / RFU RHOB (11743442_s_at) / Fold change /veh RHOB (11743442_s_at) / RFU RGS16 (11720943_a_at) / Fold change /veh RGS16 (11720943_a_at) / RFU RGS16 (11720944_at) / Fold change /veh RGS16 (11720944_at) / RFU, VPS4B / Fold change vs veh, VPS4B / RFU, CREB1 / Fold change vs veh, CREB1 / RFU, DNAJC13 / Fold change vs veh, DNAJC13 / RFU, GNAQ / Fold change vs veh, GNAQ / RFU, CDK5R1 / Fold change vs veh, CDK5R1 / RFU, ZRANB3 / Fold change vs veh, ZRANB3 / RFU, CUL4A / Fold change vs veh, CUL4A / RFU, CCNY / Fold change vs veh, CCNY / RFU, UFL1 / Fold change vs veh, UFL1 / RFU, COG3 / Fold change vs veh, COG3 / RFU, DIAPH2 / Fold change vs veh, DIAPH2 / RFU, SKA2 / Fold change vs veh, SKA2 / RFU, AFF3 / Fold change vs veh, AFF3 / RFU, LMF1 / Fold change vs veh, LMF1 / RFU, IPO11 / Fold change vs veh, IPO11 / RFU, DFFB / Fold change vs veh, DFFB / RFU, FOXP1 / Fold change vs veh, FOXP1 / RFU, CARD8 / Fold change vs veh, CARD8 / RFU, STRN3 / Fold change vs veh, STRN3 / RFU, ADK / Fold change vs veh, ADK / RFU, RASSF2 / Fold change vs veh, RASSF2 / RFU, WIPF1 / Fold change vs veh, WIPF1 / RFU, LARP1B / Fold change vs veh, LARP1B / RFU, RASA1 / Fold change vs veh, RASA1 / RFU, RB1 / Fold change vs veh, RB1 / RFU, PPFIA1 / Fold change vs veh, PPFIA1 / RFU, MAT2A / Fold change vs veh, MAT2A / RFU, CCT5 / Fold change vs veh, CCT5 / RFU, WDR92 / Fold change vs veh, WDR92 / RFU, CUX1 / Fold change vs veh, CUX1 / RFU, TTC7A / Fold change vs veh, TTC7A / RFU, TMEM135 / Fold change vs veh, TMEM135 / RFU, DEPTOR / Fold change vs veh, DEPTOR / RFU, CPM / Fold change vs veh, CPM / RFU, DNAJB6 / Fold change vs veh, DNAJB6 / RFU, CACNA2D3 / Fold change vs veh, CACNA2D3 / RFU, DTX4 / Fold change vs veh, DTX4 / RFU, TFCP2 / Fold change vs veh, TFCP2 / RFU, GMCL1 /// GMCL1P1 / Fold change vs veh, GMCL1 /// GMCL1P1 / RFU, AEBP2 / Fold change vs veh, AEBP2 / RFU, SNHG1 /// SNORD22 /// SNORD25 /// SNORD26 /// SNORD27 /// SNORD28 /// SNORD29 /// SNORD31 / Fold change vs veh, SNHG1 /// SNORD22 /// SNORD25 /// SNORD26 /// SNORD27 /// SNORD28 /// SNORD29 /// SNORD31 / Fold change (Aza/veh), C12orf56 (ProbeSet 11735607_a_at) / Fold change (ACY-1035/veh), C12orf56 (ProbeSet 11735607_a_at) / Fold change (Aza/veh), FGFR1OP (ProbeSet 11751329_s_at) / Fold change (ACY-1035/veh), FGFR1OP (ProbeSet 11751329_s_at) / Fold change (Aza/veh), VPS36 (ProbeSet 11739960_a_at) / Fold change (ACY-1035/veh), VPS36 (ProbeSet 11739960_a_at) / RFU SYPL1 (11715823_x_at) / Fold change /veh SYPL1 (11715823_x_at) / RFU IGFBP7 (11715501_s_at) / Fold change /veh IGFBP7 (11715501_s_at) / RFU REEP3 (11722064_at) / Fold change /veh REEP3 (11722064_at) / RFU IGLL1 (11728026_x_at) / Fold change /veh IGLL1 (11728026_x_at): dose or concentration left out as unconfirmed
Conditions: MV-4-11 cells, 48 hours

SMILES: Nc1ccc(-c2cccs2)cc1NC(=O)c1ccc2c(c1)cc(C1CC1)n2CCN1CCOCC1 [ACY-1035]
- RFU ARHGAP8 /// PRR5-ARHGAP8 (11727945_x_at): 101.90 RFU
